Row | SMILES | melting point
1 | CN(C(=O)c1ccc(C(F)(F)F)cc1)c1ccc(Oc2ccc3c(c2)cc(C(=O)N2CCN(Cc4ccc5c(c4)OC(F)(F)O5)CC2)n3C)nc1.O=C(O)C(=O)O [Example 439, N-(6-{2-[4-(2,2-Difluorobenzo[1,3]dioxol-5-ylmethyl)piperazine-1-carbonyl]-1-methyl-1H-indol-5-yloxy}pyridin-3-yl)-N-methyl-4-tri-fluoromethylbenzamide oxalate] | 155.7 to 156.9 °C
2 | Br.Br.Cn1c(C(=O)N2CCN(Cc3cccnc3)CC2)cc2cc(Oc3ccc(NC(=O)c4ccc(C(F)(F)F)cc4)cn3)ccc21 [Example 558, N-{6-[1-Methyl-2-(4-pyridin-3-ylmethylpiperazine-1-carbonyl)-1H-indol-5-yloxy]pyridin-3-yl}-4-trifluoromethylbenzamide dihydrobromide] | 201 to 204 °C
3 | CN(C(=O)c1ccc(C(F)(F)F)cc1)c1ccc(Oc2ccc3c(c2)cc(C(=O)N2CCN(C(=O)c4ccc(C#N)cc4)CC2)n3C)nc1 [Example 242, N-(6-{2-[4-(4-Cyanobenzoyl)piperazine-1-carbonyl]-1-methyl-1H-indol-5-yloxy}pyridin-3-yl)-N-methyl-4-trifluoromethylbenzamide] | 135 to 137 °C
4 | Br.CC(C)Oc1ccc(CN2CCN(C(=O)c3cc4ccc(Oc5ccc(N(C)C(=O)c6ccc(OC(F)(F)F)cc6)cn5)cc4n3C)CC2)cc1 [Example 472, N-(6-{2-[4-(4-Isopropoxybenzyl)piperazine-1-carbonyl]-1-methyl-1H-indol-6-yloxy}pyridin-3-yl)-N-methyl-4-trifluoromethoxy-benzamide hydrobromide] | 237.2 to 238.5 °C
5 | Br.CC(C)Oc1ccc(CN2CCN(C(=O)c3cc4ccc(Oc5ccc(N(C)C(=O)c6ccc(C(F)(F)F)cc6Cl)cn5)cc4n3C)CC2)cc1 [Example 451, 2-Chloro-N-(6-{2-[4-(4-isopropoxybenzyl)piperazine-1-carbonyl]-1-methyl-1H-indol-6-yloxy}pyridin-3-yl)-N-methyl-4-trifluoromethyl-benzamide hydrobromide] | 248.3 to 252.3 °C
6 | CN(c1ccc(Oc2ccc3cc(C(=O)N4CCN(Cc5ccc(OCC(F)(F)F)cc5)CC4)n(C)c3c2)nc1)S(C)(=O)=O.Cl | 252.7 to 253.6 °C
7 | CC(C)CN1CCN(C(=O)c2cc3cc(Oc4ccc(N(C)C(=O)c5ccc(C(F)(F)F)cc5)cn4)ccc3n2C)CC1 [Example 562, N-{6-[2-(4-Isobutylpiperazine-1-carbonyl)-1-methyl-1H-indol-5-yl-oxy]pyridin-3-yl}-N-methyl-4-trifluoromethylbenzamide] | 163 to 164 °C
8 | Br.CN(c1ccc(C(F)(F)F)cc1)c1ccc(Oc2ccc3c(c2)cc(C(=O)N2CCN(Cc4ccc5c(c4)OCO5)CC2)n3C)nc1 [Example 335, (4-Benzo[1,3]dioxol-5-ylmethylpiperazin-1-yl)(1-methyl-5-{5-[methyl(4-trifluoromethylphenyl)amino]pyridin-2-yloxy}-1H-indol-2-yl)methanone hydrobromide] | 211 to 215 °C
9 | Br.CC(C)Oc1ccc(CN2CCN(C(=O)c3cc4ccc(Oc5ccc(NC(=O)c6ccc(Cl)c(Cl)c6)cn5)cc4n3C)CC2)cc1 [Example 255, 3,4-Dichloro-N-(6-{2-[4-(4-isopropoxybenzyl)piperazine-1-carbonyl]-1-methyl-1H-indol-6-yloxy}pyridin-3-yl)benzamide hydrobromide] | 239.7 to 243.5 °C
10 | Br.Cn1c(C(=O)N2CCN(Cc3ccc(OC(F)(F)F)cc3)CC2)cc2ccc(Oc3ccc(NC(=O)c4ccc(Cl)c(Cl)c4)cn3)cc21 [Example 264, 3,4-Dichloro-N-(6-{1-methyl-2-[4-(4-trifluoromethoxybenzyl)-piperazine-1-carbonyl]-1H-indol-6-yloxy}pyridin-3-yl)benzamide hydrobromide] | 261.6 to 264.7 °C
11 | Br.Br.Cn1c(C(=O)N2CCN(Cc3cccnc3)CC2)cc2cc(Oc3ccc(NC(=O)c4ccc(Cl)c(Cl)c4)cn3)ccc21 [Example 563, 3,4-Dichloro-N-{6-[1-methyl-2-(4-pyridin-3-ylmethylpiperazine-1-carbonyl)-1H-indol-5-yloxy]pyridin-3-yl}benzamide dihydrobromide] | 249 to 252 °C (dec.)
12 | CC(C)S(=O)(=O)N(C)c1ccc(Oc2ccc3cc(C(=O)N4CCN(Cc5ccc(OCC(F)(F)F)cc5)CC4)n(C)c3c2)nc1.Cl | 256.5 to 259.8 °C
13 | Br.CN(C(=O)c1ccc(Cl)c(Cl)c1)c1ccc(Oc2ccc3cc(C(=O)N4CCN(Cc5ccc(OC(F)F)cc5)CC4)n(C)c3c2)nc1 [Example 488, 3,4-Dichloro-N-(6-{2-[4-(4-difluoromethoxybenzyl)piperazine-1-carbonyl]-1-methyl-1H-indol-6-yloxy}pyridin-3-yl)-N-methyl-benzamide hydrobromide] | 185.6 to 189.3 °C
14 | Br.Cn1c(C(=O)N2CCN(Cc3ccc(OCC(F)(F)F)cc3)CC2)cc2ccc(Oc3ccc(NC(=O)c4ccc(Cl)c(Cl)c4)cn3)cc21 [Example 465, 3,4-Dichloro-N-[6-(1-methyl-2-{4-[4-(2,2,2-trifluoroethoxy)-benzyl]piperazine-1-carbonyl}-1H-indol-6-yloxy)pyridin-3-yl]-benzamide hydrobromide] | 251.8 to 253.5 °C
15 | Br.COc1ccc(CN2CCN(C(=O)c3cc4cc(Oc5ccc(NC(=O)c6ccc(C(F)(F)F)cc6)cn5)ccc4n3C)CC2)cc1OC [Example 350, N-(6-{2-[4-(3,4-Dimethoxybenzyl)piperazine-1-carbonyl]-1-methyl-1H-indol-5-yloxy}pyridin-3-yl)-4-trifluoromethylbenzamide hydrobromide] | 233 to 235 °C

Other lines, results leading:

Row | melting point | SMILES
16 | 260.7 to 261.2 °C | Br.Cn1c(C(=O)N2CCN(Cc3ccc(OCC(F)F)cc3)CC2)cc2ccc(Oc3ccc(NC(=O)c4ccc(C(F)(F)F)cc4)cn3)cc21 [Example 479, N-[6-(2-{4-[4-(2,2-Difluoroethoxy)benzyl]piperazine-1-carbonyl}-1-methyl-1H-indol-6-yloxy)pyridin-3-yl]-4-trifluoromethyl-benzamide hydrobromide]
17 | 195.4 °C | Cl.Cn1c(C(=O)N2CCN(Cc3ccc(OCC(F)(F)F)cc3)CC2)cc2ccc(Oc3ccc(NC(=O)c4ccc(C(F)(F)F)nc4)cn3)cc21
18 | 155 to 156 °C | COc1ccc(CN2CCN(C(=O)c3cc4cc(Oc5ccc(N(C)C(=O)c6ccc(Cl)c(Cl)c6)cn5)ccc4n3C)CC2)nc1.O=C(O)/C=C\C(=O)O [Example 389, 3,4-Dichloro-N-(6-{2-[4-(5-methoxypyridin-2-ylmethyl)piperazine-1-carbonyl]-1-methyl-1H-indol-5-yloxy}pyridin-3-yl)-N-methyl-benzamide maleate]
19 | 254 to 257 °C | Br.Cn1c(C(=O)N2CCN(Cc3ccc(F)cc3)CC2)cc2cc(Oc3ccc(NC(=O)c4ccc(C(F)(F)F)cc4)cn3)ccc21 [Example 551, N-(6-{2-[4-(4-Fluorobenzyl)piperazine-1-carbonyl]-1-methyl-1H-indol-5-yloxy}pyridin-3-yl)-4-trifluoromethylbenzamide hydrobromide]
20 | 152 to 154 °C | CN(C(=O)c1ccc(C(F)(F)F)cc1)c1ccc(Oc2ccc3c(c2)cc(C(=O)N2CCN(Cc4ccc(OCCF)cc4)CC2)n3C)nc1.O=C(O)/C=C\C(=O)O [Example 408, N-[6-(2-{4-[4-(2-Fluoroethoxy)benzyl]piperazine-1-carbonyl}-1-methyl-1H-indol-5-yloxy)pyridin-3-yl]-N-methyl-4-trifluoromethyl-benzamide maleate]
21 | 222.4 to 224.6 °C | Br.Cc1cc(Oc2ccc3cc(C(=O)N4CCN(Cc5ccc(OCC(F)(F)F)cc5)CC4)n(C)c3c2)ncc1NC(=O)c1ccc(C(F)(F)F)cc1 [Example 46, N-[4-Methyl-6-(1-methyl-2-{4-[4-(2,2,2-trifluoroethoxy)benzyl]-piperazine-1-carbonyl}-1H-indol-6-yloxy)pyridin-3-yl]-4-tri-fluoromethylbenzamide hydrobromide]
22 | 240 to 244 °C | Br.Cn1c(C(=O)N2CCN(Cc3ccc4c(c3)OCO4)CC2)cc2cc(Oc3ccc(NC(=O)c4ccc(C(F)(F)F)cc4)cn3)ccc21 [Example 8, N-{6-[2-(4-Benzo[1,3]dioxol-5-ylmethylpiperazine-1-carbonyl)-1-methyl-1H-indol-5-yloxy]pyridin-3-yl}-4-trifluoromethylbenzamide hydrobromide]
23 | 243.6 to 247.7 °C | Br.COCc1ccc(CN2CCN(C(=O)c3cc4ccc(Oc5ccc(NC(=O)c6ccc(Cl)c(Cl)c6)cn5)cc4n3C)CC2)cc1 [Example 259, 3,4-Dichloro-N-(6-{2-[4-(4-methoxymethylbenzyl)piperazine-1-carbonyl]-1-methyl-1H-indol-6-yloxy}pyridin-3-yl)benzamide hydrobromide]
24 | 211 to 215 °C (dec.) | Br.Br.Cn1c(C(=O)N2CCN(Cc3ccncc3)CC2)cc2cc(Oc3ccc(NC(=O)c4ccc(C(F)(F)F)cc4)cn3)ccc21 [Example 550, N-{6-[1-Methyl-2-(4-pyridin-4-ylmethylpiperazine-1-carbonyl)-1H-indol-5-yloxy]pyridin-3-yl}-4-trifluoromethylbenzamide dihydrobromide]
25 | 234.7 to 235.1 °C | Br.CCCOc1ccc(CN2CCN(C(=O)c3cc4cc(Oc5ccc(NC(=O)c6ccc(C(F)(F)F)cc6)cn5)ccc4n3C)CC2)cc1 [Example 481, N-(6-{1-Methyl-2-[4-(4-propoxybenzyl)piperazine-1-carbonyl]-1H-indol-5-yloxy}pyridin-3-yl)-4-trifluoromethylbenzamide hydrobromide]
26 | 263 to 265 °C | Br.COc1ccc(CN2CCN(C(=O)c3cc4cc(Oc5ccc(NC(=O)c6cc7cc(Br)ccc7[nH]6)cn5)ccc4n3C)CC2)cc1 [Example 228, 5-Bromo-1H-indole-2-carboxylic acid (6-{2-[4-(4-methoxybenzyl)-piperazine-1-carbonyl]-1-methyl-1H-indol-5-yloxy}pyridin-3-yl)-amide hydrobromide]
27 | 187 to 190 °C | Br.CN(C(=O)c1ccc(C(F)(F)F)cc1F)c1ccc(Oc2ccc3c(c2)cc(C(=O)N2CCN(Cc4ccc5c(c4)OCO5)CC2)n3C)nc1 [Example 319, N-{6-[2-(4-Benzo[1,3]dioxol-5-ylmethylpiperazine-1-carbonyl)-1-methyl-1H-indol-5-yloxy]pyridin-3-yl}-2-fluoro-N-methyl-4-tri-fluoromethylbenzamide hydrobromide]
